Measured values taken from patent publication US12295396B2, “Antagonists of T2R54 and compositions and uses thereof” (Firmenich Incorporated, priority 2018, dated 2025).
Read-outs that look alike come from different tables or passages of the source.

Biological target: T1, hT2R54 (Homo sapiens, UniProt P59534)
T1 construct: expressed in transfected cells; it overexpresses a promiscuous G protein
T1 sequence (P59534 1-338): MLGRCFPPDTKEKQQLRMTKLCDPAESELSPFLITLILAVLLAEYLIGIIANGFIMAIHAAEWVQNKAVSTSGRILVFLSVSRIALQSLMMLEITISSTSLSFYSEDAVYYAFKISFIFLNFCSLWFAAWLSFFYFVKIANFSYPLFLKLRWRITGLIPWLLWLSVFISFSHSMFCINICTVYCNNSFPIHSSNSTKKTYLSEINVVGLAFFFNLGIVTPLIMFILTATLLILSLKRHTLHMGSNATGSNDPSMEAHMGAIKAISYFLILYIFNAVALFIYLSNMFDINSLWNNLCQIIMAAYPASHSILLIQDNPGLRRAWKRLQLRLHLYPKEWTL
Assay: Cell-based assay for measuring hT2R54 inhibition (FLIPR calcium, Fluo4AM, acetaminophen as bitter agonist)
Details: read-out: hT2R54 IC50
How it was run: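 Cells stably co-expressing hT2R54 and a promiscuous G protein were loaded with Fluo4AM and given acetaminophen dose series, alone or with fixed concentrations of test compound. On FLIPR, baseline was recorded for 10 s and fluorescence for 3 min after addition. IC50 is the concentration halving the acetaminophen-alone response.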

[1] = Table 2, cells stably expressing hT2R54 and a promiscuous G protein
[2] = Table 6, cells stably expressing hT2R54 and a promiscuous G protein
[3] = Table 4, cells stably expressing hT2R54 and a promiscuous G protein

| IC50 [1] [nM] | IC50 (Table 8) [nM] | SMILES | also measured |
| --- | --- | --- | --- |
| 70 |  | CC(=O)c1cc2c(cc1NC(=O)CN1CCN(C(=O)[C@H]3CCCO3)CC1)OCCO2 [compound 342] |  |
|  | 450 | CC(=O)c1cc2c(cc1NC(=O)CC1CCN(C(=O)C3CCCO3)CC1)OCCO2 (centres unmarked) [compound 493] |  |
|  | > 10000 | CC(=O)c1cc2c(cc1NC(=O)CC1CCN(C(=O)CN3CCCC3)CC1)OCO2 [compound 479] |  |
|  | 15 | COCc1ccc(C(=O)N2CCC(CC(=O)Nc3cc4c(cc3C(C)=O)OCCO4)CC2)s1 [compound 488] |  |
| 90 |  | CC(=O)c1cc2c(cc1NC(=O)CN1CCN(C(=O)c3ccn[nH]3)CC1)OCCO2 [compound 330] |  |
| 1400 |  | COc1cc2c(cc1NC(=O)C(C)N1CCN(C(C)=O)CC1)OCO2 (centres unmarked) [compound 403] |  |
|  | > 10000 | COc1cc2c(cc1NC(=O)CC1CCCN(C(=O)CC(C)C)C1)OCO2 (centres unmarked) [compound 511] |  |
| 60 |  | COCC(=O)N1CCN(CC(=O)Nc2cc3c(cc2C(C)=O)OCCO3)CC1 [compound 338] |  |
|  | 400 | CC(=O)c1cc2c(cc1NC(=O)CC1CCN(C(=O)c3c[nH]c(C)n3)CC1)OCO2 [compound 463] |  |
| 20 |  | CC(=O)c1cc2c(cc1NC(=O)CN1CCN(C(=O)c3ncc[nH]3)CC1)OCO2 [compound 301] |  |
|  | 1400 | COC(=O)c1cc2c(cc1NC(=O)CC1CCN(C(=O)C3CCCO3)CC1)OCO2 (centres unmarked) [compound 482] |  |
| 1000 |  | COc1cc2c(cc1NC(=O)CN1CCN(C(=O)C3CCCCC3C)CC1)OCO2 (centres unmarked) [compound 405] |  |
| 400 |  | COc1cc2c(cc1NC(=O)CN1CCN(C(=O)c3cccc(C#N)c3)CC1)OCO2 [compound 382] |  |
|  | 170 | CC(=O)c1cc2c(cc1NC(=O)CC1CCCN(C(=O)c3ccncc3)C1)OCO2 (centres unmarked) [compound 502] |  |
|  | 300 | CC(=O)c1cc2c(cc1NC(=O)CC1CCN(C(=O)CC3CCCO3)CC1)OCCO2 (centres unmarked) [compound 475] |  |
| 83 |  | COCc1ccc(C(=O)N2CCN(CC(=O)Nc3cc4c(cc3C(=O)OC)OCO4)CC2)o1 [compound 347] |  |
|  | 700 | COCCOCC(=O)N1CCC(CC(=O)Nc2cc3c(cc2C(C)=O)OCO3)CC1 [compound 470] |  |
| 200 |  | COc1cc2c(cc1NC(=O)CN1CCN(C(=O)c3nc(C)c[nH]3)CC1)OCO2 [compound 391] |  |
| 100 |  | COc1cc2c(cc1NC(=O)CN1CCN(C(=O)c3cc(C)c(C)o3)CC1)OCO2 [compound 395] |  |
| 740 |  | COC(=O)c1cc2c(cc1NC(=O)CN1CCN(C(=O)CN3CCOCC3)CC1)OCO2 [compound 352] |  |
|  | 640 | COCc1ccc(C(=O)N2CCC(CC(=O)Nc3cc4c(cc3C(=O)OC)OCO4)CC2)cc1 [compound 483] |  |
|  | 160 | CC(=O)c1cc2c(cc1NC(=O)CC1CCCN(C(=O)c3cc(O)ccc3O)C1)OCO2 (centres unmarked) [compound 458] |  |
| 208 |  | COCc1ccc(C(=O)N2CCN(CC(=O)Nc3cc4c(cc3OC)OCO4)CC2)s1 [compound 357] |  |
|  | 300 | CC(=O)c1cc2c(cc1NC(=O)CC1CCN(C(=O)c3ccncc3)CC1)OCO2 [compound 454] |  |

The remaining lines, values behind:

| SMILES | IC50 [1] [nM] | IC50 (Table 8) [nM] | also measured |
| --- | --- | --- | --- |
| CC(=O)c1cc2c(cc1NC(=O)CC(C)C)OCO2 [compound 516] |  |  | IC50 (Table 9): 3000 nM |
| CC(=O)c1cc2c(cc1NC(=O)CC1CCN(C(=O)Cc3ccccc3)CC1)OCO2 [compound 247] |  | 490 |  |
| CC(=O)c1cc2c(cc1NC(=O)CN1CCC(NC(=O)c3ccccc3)CC1)OCO2 [compound 171] |  |  | IC50 [2]: 60 nM |
| CC(=O)c1cc2c(cc1NC(=O)CN1CCN(C(=O)c3cc4ccccc4o3)CC1)OCO2 [compound 80] | 500 |  |  |
| CC(=O)c1cc2c(cc1NC(=O)CN1CCC(N(C)C(=O)CC(C)C)CC1)OCO2 [compound 180] |  |  | IC50 [2]: 589 nM |
| COc1cc2c(cc1NC(=O)CN1CCC(OC)CC1)OCO2 [compound 147] |  |  | IC50 [3]: 448 nM |
| CCCOC(=O)N1CCCC(CC(=O)Nc2cc3c(cc2C(C)=O)OCO3)C1 (centres unmarked) [compound 214] |  | 320 |  |
| CCC(=O)N1CCN(CC(=O)Nc2cc3c(cc2C(C)=O)OCO3)CC1 [compound 8] | 50 |  |  |
| CC(=O)c1cc2c(cc1NC(=O)CN1CCN(C(=O)C(C)(C)C)CC1)OCO2 [compound 13] | 23 |  |  |
| CC(=O)c1cc2c(cc1NC(=O)CC1CCCN(C(=O)c3cccs3)C1)OCO2 (centres unmarked) [compound 195, N-(6-Acetylbenzo[d][1,3]dioxol-5-yl)-2-(1-(thiophene-2-carbonyl)piperidin-3-yl)acetamide] |  | 8 |  |
| CC(=O)c1cc2c(cc1NC(=O)CC1CCN(C(=O)c3ccoc3)CC1)OCO2 [compound 200, N-(6-Acetylbenzo[d][1,3]dioxol-5-yl)-2-(1-(furan-3-carbonyl)piperidin-4-yl)acetamide] |  | 149 |  |
| CC(=O)c1cc2c(cc1NC(=O)CN1CCN(C(=O)c3ccc(C)o3)CC1)OCO2 [compound 81] | 4 |  |  |
| CCOC(=O)CCN(C)CC(=O)Nc1cc2c(cc1OC)OCO2 [compound 142] |  |  | IC50 [3]: 230 nM |
| CC(=O)c1cc2c(cc1NC(=O)CC1CCCN(C(=O)C3CCCCO3)C1)OCO2 (centres unmarked) [compound 211] |  | 18 |  |
| CC(=O)c1cc2c(cc1NC(=O)CN1CCN(C(=O)NCc3ccccc3)CC1)OCO2 [compound 32] | 21 |  |  |
| COc1cc2c(cc1NC(=O)CN1CCN(C(=O)c3ccccc3OC)CC1)OCO2 [compound 91] | 280 |  |  |
| CC(=O)c1cc2c(cc1NC(=O)CC1CCCN(S(C)(=O)=O)C1)OCO2 (centres unmarked) [compound 222] |  | 60 |  |
| CC(=O)c1cc2c(cc1NC(=O)Cc1ccco1)OCO2 [compound 523] |  |  | IC50 (Table 9): 2310 nM |
| CC(=O)c1cc2c(cc1NC(=O)CC1CCN(C(=O)C(C)C)CC1)OCO2 [compound 236] |  | > 1000 |  |
| COCc1ccc(C(=O)N2CCN(CC(=O)Nc3cc4c(cc3C(C)=O)OCO4)CC2)cc1 [compound 282] | 38 |  |  |
| CC(=O)c1cc2c(cc1NC(=O)CN1CCN(C(=O)Cc3ccccc3O)CC1)OCO2 [compound 53] | 18 |  |  |
| CCN(CCCOC)CC(=O)Nc1cc2c(cc1C(C)=O)OCO2 [compound 427] |  |  | IC50 [3]: 373 nM |
| CCCOC(=O)N1CCC(CC(=O)Nc2cc3c(cc2C(C)=O)OCO3)CC1 [compound 241] |  | 72 |  |
| CC(=O)c1cc2c(cc1NC(=O)C[C@@H]1CCCN(C(=O)CC(C)C)C1)OCO2 [compound 206] |  | 25 |  |

| SMILES | IC50 [1] [nM] | IC50 (Table 8) [nM] | also measured |
| --- | --- | --- | --- |
| COc1cc2c(cc1NC(=O)CN1CCc3ccccc31)OCO2 [compound 150] |  |  | IC50 [3]: 393 nM |
| Cc1cc(N2CCC(C(N)=O)CC2)nc(-c2ccccc2)n1 [A, 1-(6-Methyl-2-phenylpyrimidin-4-yl)piperidine-4-carboxamide] |  |  | IC50 (other T2R54 bitter blockers (table after b418)): 2900 nM |
| COc1cc2c(cc1NC(=O)CN1CCN(C(=O)Cc3ccccc3F)CC1)OCO2 [compound 376] | 200 |  |  |
| CC(=O)c1cc2c(cc1NC(=O)CN(C)C1CCCCC1)OCO2 [compound 130] |  |  | IC50 [3]: 312 nM |
| COc1cc2c(cc1NC(=O)CN1CCC(O)CC1)OCO2 [compound 146] |  |  | IC50 [3]: < 2000 nM |
| COC(=O)c1cc2c(cc1NC(=O)CN1CCC(O)CC1)OCO2 [compound 434] |  |  | IC50 [3]: 248 nM |
| CCCCS(=O)(=O)N1CCCC(CC(=O)Nc2cc3c(cc2C(C)=O)OCO3)C1 (centres unmarked) [compound 225] |  | 70 |  |
| COC1CCN(CC(=O)Nc2cc3c(cc2C(C)=O)OCO3)CC1 [compound 121] |  |  | IC50 [3]: 65 nM |
| CC(=O)c1cc2c(cc1NC(=O)CN1CCN(C(=O)c3coc(C)n3)CC1)OCO2 [compound 297] | 23 |  |  |
| CC(=O)c1cc2c(cc1NC(=O)CN1CCN(C(=O)CN3CCCC3)CC1)OCO2 [compound 27] | 176 |  |  |
| CC(=O)c1cc2c(cc1NC(=O)CN1CCN(C(=O)c3ccc(F)cc3)CC1)OCO2 [compound 45] | 28 |  |  |
| CCOC(=O)C1CCCN(CC(=O)Nc2cc3c(cc2C(C)=O)OCCO3)C1 (centres unmarked) [compound 118, Ethyl 1-(2-((7-Acetyl-2,3-dihydrobenzo[b][1,4]dioxin-6-yl)amino)-2-oxoethyl)piperidine-3-carboxylate] |  |  | IC50 [3]: 24 nM |
| CC(=O)c1cc2c(cc1NC(=O)CNC1CCN(C(=O)c3cccnc3)CC1)OCO2 [compound 179] |  |  | IC50 [2]: 90 nM |
| CC(=O)c1cc2c(cc1NC(=O)CN1CCN(Cc3ccc(F)cc3)CC1)OCO2 [compound 104] |  |  | IC50 (Table 3, cells stably expressing hT2R54 and a promiscuous G protein): 600 nM |
| CCc1cc2c(cc1NC(=O)CN1CCN(C(=O)OC(C)(C)C)CC1)OCO2 [compound 448] |  |  | IC50 [3]: 700 nM |
| CC(=O)c1cc2c(cc1NC(=O)CN1CCN(C(=O)Cc3cccs3)CC1)OCO2 [compound 65] | 30 |  |  |
| CC(=O)c1cc2c(cc1NC(=O)CC1CCN(C(=O)C3CCCO3)CC1)OCO2 (centres unmarked) [compound 242] |  | 68 |  |
| CC(=O)c1cc2c(cc1NC(=O)CN1CCN(C(=O)Cc3ccc(F)cc3)CC1)OCO2 [compound 63] | 400 |  |  |
| COc1cc2c(cc1NC(=O)CN1CCCc3cccc(F)c31)OCO2 [compound 149] |  |  | IC50 [3]: 885 nM |
| CCNC(=O)C1CCCN(CC(=O)Nc2cc3c(cc2C(C)=O)OCO3)C1 (centres unmarked) [compound 155] |  |  | IC50 (Table 5, cells stably expressing hT2R54 and a promiscuous G protein): 210 nM |
| CCCCC(=O)N1CCN(CC(=O)Nc2cc3c(cc2OC)OCO3)CC1 [compound 82] | 540 |  |  |
| CC(=O)c1cc2c(cc1NC(=O)CN1CCN(C(=O)c3ncoc3C)CC1)OCO2 [compound 299] | 58 |  |  |
| CC(=O)c1cc2c(cc1NC(=O)CC1CCCCO1)OCO2 (centres unmarked) [compound 271] |  |  | IC50 (Table 9): 152 nM |
